Experimental data: ChEMBL document CHEMBL1201862, “PubChem BioAssay data set” (2004)
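Each compound was tested at five concentrations against cells in 96-well plates for 48 hours. Here, GI50 denotes the concentration required for 50% inhibition of growth.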 The source made the active and inactive calls. Rule as the data show it: active = GI50 up to about 1.1 µM and inactive = higher.

Columns and labels:
Assay in all cases: NCI-60 cell line screen, 48 h
SW-620 = test system: SW-620
EKVX = test system: EKVX
U-251 = test system: U-251
NCI-H522 = test system: NCI-H522
RXF 393 = test system: RXF 393
NCI-H23 = test system: NCI-H23
OVCAR-5 = test system: OVCAR-5
COLO 205 = test system: COLO 205
SF-295 = test system: SF-295
TK-10 = test system: TK-10
SN12C = test system: SN12C
UO-31 = test system: UO-31
HCT-116 = test system: HCT-116
UACC-257 = test system: UACC-257
MOLT-4 = test system: MOLT-4
OVCAR-3 = test system: OVCAR-3
K562 = test system: K562
CCRF-CEM = test system: CCRF-CEM
LOX IMVI = test system: LOX IMVI
HOP-62 = test system: HOP-62

SMILES | GI50 (SW-620) | GI50 (EKVX) | GI50 (U-251) | GI50 (NCI-H522) | GI50 (RXF 393) | GI50 (NCI-H23) | GI50 (OVCAR-5) | GI50 (COLO 205) | GI50 (SF-295) | GI50 (TK-10) | GI50 (SN12C) | GI50 (UO-31) | GI50 (HCT-116) | GI50 (UACC-257) | GI50 (MOLT-4) | GI50 (OVCAR-3) | GI50 (K562) | GI50 (CCRF-CEM) | GI50 (LOX IMVI) | GI50 (HOP-62)
C=C(CCCO)[C@@H]1CC[C@@](C)(O)[C@H]1C | > 100 µM (inactive) | > 100 µM (inactive) | > 100 µM (inactive) | > 100 µM (inactive) | > 100 µM (inactive) | > 100 µM (inactive) | > 100 µM (inactive) | > 100 µM (inactive) | > 100 µM (inactive) | > 100 µM (inactive) | > 100 µM (inactive) | > 100 µM (inactive) | > 100 µM (inactive) | > 100 µM (inactive) | > 100 µM (inactive) | > 100 µM (inactive) | > 100 µM (inactive) | – | – | –
Nc1c(C(=O)Nc2ccc(C3=NCCN3)cc2)cccc1C(=O)Nc1ccc(C2=NCCN2)cc1 | > 100 µM (inactive) | – | 53.5 µM (inactive) | > 65.2 µM (inactive) | > 100 µM (inactive) | > 100 µM (inactive) | > 100 µM (inactive) | > 100 µM (inactive) | > 100 µM (inactive) | – | > 88.1 µM (inactive) | > 100 µM (inactive) | > 100 µM (inactive) | > 100 µM (inactive) | > 100 µM (inactive) | > 100 µM (inactive) | > 100 µM (inactive) | > 100 µM (inactive) | > 100 µM (inactive) | –
COc1cc(/C=C2\C(=O)N(C(=O)Cc3ccccc3)N=C2C)cc(OC)c1OC | > 100 µM (inactive) | > 100 µM (inactive) | – | > 100 µM (inactive) | – | > 100 µM (inactive) | > 100 µM (inactive) | > 100 µM (inactive) | > 100 µM (inactive) | > 100 µM (inactive) | > 100 µM (inactive) | > 100 µM (inactive) | > 100 µM (inactive) | > 100 µM (inactive) | > 100 µM (inactive) | > 100 µM (inactive) | > 100 µM (inactive) | > 100 µM (inactive) | > 100 µM (inactive) | > 100 µM (inactive)
Cn1c(=O)nc2n(-c3ccc(Cl)cc3Cl)c3ccccc3nc-2c1=O | – | 5.27 µM (inactive) | 5.06 µM (inactive) | – | 3.96 µM (inactive) | 3.27 µM (inactive) | 33.8 µM (inactive) | 1.7 µM (inactive) | 2.33 µM (inactive) | 26.2 µM (inactive) | – | 12 µM (inactive) | 2.18 µM (inactive) | – | 10.7 µM (inactive) | 2.1 µM (inactive) | 3.92 µM (inactive) | – | – | 11.7 µM (inactive)
C=C1CC(OC)(C(O)C(=O)N[C@H]2OCO[C@H]3C2O[C@H](C[C@@H](CO)OC)C(C)(C)C3OC)O[C@H](C)[C@@H]1C (stereo partly drawn) | < 0.00931 µM (active) | – | < 0.00931 µM (active) | – | < 0.00931 µM (active) | < 0.00931 µM (active) | < 0.00931 µM (active) | < 0.00931 µM (active) | < 0.00931 µM (active) | – | < 0.00931 µM (active) | < 0.00931 µM (active) | < 0.00931 µM (active) | < 0.00931 µM (active) | 0.931 µM (active) | < 0.00931 µM (active) | < 0.00931 µM (active) | 0.0125 µM (active) | < 0.00931 µM (active) | < 0.00931 µM (active)
O=C1C=CC2(O[C@@H](Cc3ccccc3)[C@H](Cc3ccccc3)O2)C(SC(=O)c2ccccc2)C1 (stereo partly drawn) | 0.231 µM (active) | – | 1.3 µM (inactive) | – | 0.0849 µM (active) | 1.69 µM (inactive) | 0.439 µM (active) | 1.73 µM (inactive) | 1.95 µM (inactive) | 1.54 µM (inactive) | 1.62 µM (inactive) | 0.586 µM (active) | 0.158 µM (active) | 1.18 µM (inactive) | 0.19 µM (active) | 0.594 µM (active) | 1.64 µM (inactive) | 0.208 µM (active) | 0.38 µM (active) | 1.11 µM (active)
O=C(/C=C/CC(O)(c1ccccc1)c1ccccc1)Nc1ccccc1Cl | > 100 µM (inactive) | > 100 µM (inactive) | > 100 µM (inactive) | > 100 µM (inactive) | – | > 100 µM (inactive) | > 100 µM (inactive) | > 100 µM (inactive) | > 100 µM (inactive) | > 100 µM (inactive) | > 100 µM (inactive) | > 100 µM (inactive) | > 100 µM (inactive) | > 100 µM (inactive) | > 100 µM (inactive) | > 100 µM (inactive) | > 100 µM (inactive) | > 100 µM (inactive) | – | > 100 µM (inactive)
c1ccc(CN2CCC3(CC2)SSC2(CCN(Cc4ccccc4)CC2)SS3)cc1 | 5.48 µM (inactive) | 12.9 µM (inactive) | > 100 µM (inactive) | 37 µM (inactive) | > 100 µM (inactive) | 79.1 µM (inactive) | > 100 µM (inactive) | 64 µM (inactive) | > 100 µM (inactive) | > 100 µM (inactive) | > 100 µM (inactive) | > 100 µM (inactive) | > 100 µM (inactive) | 59.7 µM (inactive) | > 100 µM (inactive) | > 100 µM (inactive) | > 100 µM (inactive) | – | > 100 µM (inactive) | > 100 µM (inactive)
